Measurements from patent US7611848B2, “Method for selecting allosteric regulators of class III G protein-coupled receptors” (Centre National de la Recherche Scientifique (CNRS), priority 2003, dated 2009).

Experiments:
[1] = tested on: deltaGB2s (truncated GABAB2 (GB2) subunit); test: IP production in HEK293 cells transiently expressing deltaGB2s receptor and chimeric G protein Gqi9; type: cell-based; details: deltaGB2s with Gqi9, FIG. 9
From the text: FIG. 9: Graph representing the dose-effect of CGP7930 on the deltaGB2s receptor, in HEK293 cells transiently expressing this receptor, and also the chimeric G protein Gqi9 that allows coupling of this receptor to the phospholipase C activation pathway. The results correspond to the ratio of the production of IP to the radioactivity remaining in the membranes.
The protocol described in section A.I. above, concerning the mGlu5 receptor, was applied mutatis mutandis to the mGlu1 and mGlu2 receptors and to the GB2 subunit.
For this, GPCRs-III for which positive allosteric modulators have been described were chosen: the mGlu1 receptor (Ro01-6128) (Knoflach et al., 2001), the mGlu2 receptor (LY487379) (Schaffhauser et al., 2003), and the GABAB2 (GB2) subunit of the GABAB receptor (CGP7930) (Urwyler et al., 2001). The receptors truncated with respect to their extracellular and intracellular portions are named, respectively, delta1s, delta2s and deltaGB2s and were expressed transiently in HEK293 cells.
In order to allow the delta2s and deltaGB2s receptors to activate the phospholipase C, and therefore to increase the production of inositol phosphates, these two receptors were coexpressed with the chimeric G protein Gqi9 as described above (Gomeza et al., 1996; Franek et al., 1999).

[2] = biological target: heterodimeric receptor GABAB (GB1 and GB2 subunits) (Homo sapiens, UniProt O75899); details: literature (Urwyler et al., 2001); cited from earlier work
[3] = biological target: T1, mGlu5ΔS protein (heptahelical domain of the mGlu5 receptor) (Rattus norvegicus, UniProt P31424); test: IP production in HEK293 cells transiently expressing truncated mGlu5ΔS protein; type: cell-based
T1 construct: between residue P568, located 11 residues before the first transmembrane domain, and residue L864; signal peptide of the mGlu5 receptor (N); expressed in transfected cells; host or cells: HEK293
From the text: (§1) The results correspond to the ratio of the production of IP to the radioactivity remaining in the membranes, and are expressed as percentage baseline production of IP.
(§2) The results correspond to the ratio of the production of IP to the radioactivity remaining in the membranes.
(§3) In the context of the invention, the measurement of the level of activity of the GPCR-III-A can be carried out by any conventional method known to those skilled in the art that is suitable for measuring the activity of a GPCR-III. Among these methods, mention may be made, by way of example, of measurement of the level of production of inositol phosphates (IPs; see Experimental Section, below; Berridge, 1983; Brandish et al., 2003), measurement of […] (Milligan, 2003), measurement of intracellular calcium signals using fluorescent markers such as Fluo3 or Fluo4, and measurement of cAMP production, the latter two methods being conventional and well known to those skilled in the art.
The portion of the cDNA of the mGlu5 receptor encoding its heptahelical domain between residue P568, located 11 residues before the first transmembrane domain, and residue L864, located 37 residues after the 7th transmembrane domain, was amplified by PCR (primers SEQ ID No.1 and SEQ ID No.2), including, respectively, the restriction sites of the Mlu-I and Xba-I enzymes at the 5′ and 3′ ends (FIG. 2). The PCR product thus obtained was digested with the Mlu-I and Xba-I enzymes, subcloned into the vector pRK5-NHA (FIG. 2), and digested with the same enzymes. The plasmid pRK5-NHA was obtained from the plasmid pRKG5a-NHA (Ango et al., 1999), by replacing the sequence encoding the mGlu5 receptor, from the end of the HA tag to the XbaI restriction site, with an MluI restriction site.

wild-type mGlu5 receptor = biological target: T2, wild-type mGlu5 receptor (Rattus norvegicus, UniProt P31424); test: IP production in HEK293 cells transiently expressing wild-type mGlu5 receptor; type: cell-based
T2 construct: expressed in transfected cells; host or cells: HEK293
From the text: as §2, §1, §3
DFB has recently been described as a positive allosteric regulator of the mGlu5 receptor (Williams et al., 2002). In order to test its effect on the mGlu5ΔS protein, DFB was synthesized by F. Acher (UMR University R. Descartes, rue des Saints Peres, Paris 5).
The data correspond to the mean±standard deviation of the mean of (n) experiments.

mGlu2 receptor = mGlu2 receptor (Homo sapiens, UniProt Q14416); details: literature; cited from earlier work
mGlu1 receptor = mGlu1 receptor (Rattus norvegicus, UniProt P23385); details: literature; cited from earlier work
Sequence of mGlu1 receptor (P23385 19-1199): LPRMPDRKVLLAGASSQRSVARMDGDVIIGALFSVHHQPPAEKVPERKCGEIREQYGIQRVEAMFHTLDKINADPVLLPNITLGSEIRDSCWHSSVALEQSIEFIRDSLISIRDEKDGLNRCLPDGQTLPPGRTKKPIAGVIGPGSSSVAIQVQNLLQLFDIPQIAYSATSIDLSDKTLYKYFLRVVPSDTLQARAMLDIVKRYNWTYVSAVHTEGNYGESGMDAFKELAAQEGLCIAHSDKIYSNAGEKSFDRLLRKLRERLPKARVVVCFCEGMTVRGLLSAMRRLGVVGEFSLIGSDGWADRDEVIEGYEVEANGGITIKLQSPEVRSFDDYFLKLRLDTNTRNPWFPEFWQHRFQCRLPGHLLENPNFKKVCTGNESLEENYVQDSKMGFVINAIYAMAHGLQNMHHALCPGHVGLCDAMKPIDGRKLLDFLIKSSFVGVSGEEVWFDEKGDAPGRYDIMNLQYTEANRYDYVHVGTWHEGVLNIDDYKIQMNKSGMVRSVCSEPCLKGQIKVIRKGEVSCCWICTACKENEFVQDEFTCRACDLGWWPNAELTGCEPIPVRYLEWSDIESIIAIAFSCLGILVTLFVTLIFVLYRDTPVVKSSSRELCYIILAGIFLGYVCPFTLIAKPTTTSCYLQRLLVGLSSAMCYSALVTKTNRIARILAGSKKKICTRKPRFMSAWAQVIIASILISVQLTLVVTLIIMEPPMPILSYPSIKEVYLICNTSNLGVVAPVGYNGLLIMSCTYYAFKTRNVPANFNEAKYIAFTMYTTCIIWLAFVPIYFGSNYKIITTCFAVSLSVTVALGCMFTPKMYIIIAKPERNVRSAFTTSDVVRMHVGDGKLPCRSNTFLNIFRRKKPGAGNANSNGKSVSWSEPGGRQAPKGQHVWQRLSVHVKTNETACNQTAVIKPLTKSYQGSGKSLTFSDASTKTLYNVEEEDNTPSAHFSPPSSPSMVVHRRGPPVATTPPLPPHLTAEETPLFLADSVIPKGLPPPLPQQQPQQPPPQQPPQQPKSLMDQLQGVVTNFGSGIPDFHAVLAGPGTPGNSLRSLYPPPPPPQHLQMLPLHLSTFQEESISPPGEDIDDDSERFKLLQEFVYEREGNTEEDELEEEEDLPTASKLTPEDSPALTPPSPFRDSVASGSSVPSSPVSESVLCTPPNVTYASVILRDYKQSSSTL

T2 sequence (P31424 21-1171 isoform P31424-2 limits assumed): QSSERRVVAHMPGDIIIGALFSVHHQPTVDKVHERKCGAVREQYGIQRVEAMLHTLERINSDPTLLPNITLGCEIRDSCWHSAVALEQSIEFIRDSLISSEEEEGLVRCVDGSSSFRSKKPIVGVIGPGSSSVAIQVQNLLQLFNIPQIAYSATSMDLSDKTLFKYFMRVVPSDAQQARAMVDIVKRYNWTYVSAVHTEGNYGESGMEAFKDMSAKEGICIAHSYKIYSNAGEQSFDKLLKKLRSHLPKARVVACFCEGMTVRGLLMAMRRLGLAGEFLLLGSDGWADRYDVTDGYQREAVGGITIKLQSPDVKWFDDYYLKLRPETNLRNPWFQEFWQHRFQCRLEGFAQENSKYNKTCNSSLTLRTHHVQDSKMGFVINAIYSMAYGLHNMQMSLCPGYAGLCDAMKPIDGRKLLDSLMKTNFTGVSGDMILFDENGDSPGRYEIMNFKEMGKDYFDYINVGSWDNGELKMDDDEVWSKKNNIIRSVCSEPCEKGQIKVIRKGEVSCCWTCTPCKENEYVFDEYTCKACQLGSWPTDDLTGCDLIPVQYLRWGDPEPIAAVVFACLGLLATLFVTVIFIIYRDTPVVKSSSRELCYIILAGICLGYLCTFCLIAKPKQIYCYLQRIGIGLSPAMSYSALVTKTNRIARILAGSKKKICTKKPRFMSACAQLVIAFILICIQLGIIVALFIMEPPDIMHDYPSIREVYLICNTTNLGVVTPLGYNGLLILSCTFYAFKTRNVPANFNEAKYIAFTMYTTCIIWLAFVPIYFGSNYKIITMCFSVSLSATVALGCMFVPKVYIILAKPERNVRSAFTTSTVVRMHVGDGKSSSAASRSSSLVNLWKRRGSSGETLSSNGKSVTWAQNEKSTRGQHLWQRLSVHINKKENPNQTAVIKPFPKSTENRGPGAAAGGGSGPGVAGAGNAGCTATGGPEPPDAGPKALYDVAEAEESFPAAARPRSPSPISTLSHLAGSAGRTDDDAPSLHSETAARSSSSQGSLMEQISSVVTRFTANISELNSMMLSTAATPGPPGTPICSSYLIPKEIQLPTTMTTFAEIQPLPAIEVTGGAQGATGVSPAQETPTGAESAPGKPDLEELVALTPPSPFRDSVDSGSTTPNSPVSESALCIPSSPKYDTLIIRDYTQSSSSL
T1 sequence (P31424 568-864, stated change not applied): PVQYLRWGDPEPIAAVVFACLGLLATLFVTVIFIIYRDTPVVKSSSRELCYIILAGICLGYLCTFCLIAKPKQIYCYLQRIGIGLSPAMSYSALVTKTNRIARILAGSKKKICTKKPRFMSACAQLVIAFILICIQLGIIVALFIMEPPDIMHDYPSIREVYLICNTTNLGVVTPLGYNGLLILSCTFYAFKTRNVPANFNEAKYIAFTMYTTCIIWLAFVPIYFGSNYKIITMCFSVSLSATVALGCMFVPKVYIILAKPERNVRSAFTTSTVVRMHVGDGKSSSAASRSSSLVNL
Sequence of mGlu2 receptor (Q14416 19-872): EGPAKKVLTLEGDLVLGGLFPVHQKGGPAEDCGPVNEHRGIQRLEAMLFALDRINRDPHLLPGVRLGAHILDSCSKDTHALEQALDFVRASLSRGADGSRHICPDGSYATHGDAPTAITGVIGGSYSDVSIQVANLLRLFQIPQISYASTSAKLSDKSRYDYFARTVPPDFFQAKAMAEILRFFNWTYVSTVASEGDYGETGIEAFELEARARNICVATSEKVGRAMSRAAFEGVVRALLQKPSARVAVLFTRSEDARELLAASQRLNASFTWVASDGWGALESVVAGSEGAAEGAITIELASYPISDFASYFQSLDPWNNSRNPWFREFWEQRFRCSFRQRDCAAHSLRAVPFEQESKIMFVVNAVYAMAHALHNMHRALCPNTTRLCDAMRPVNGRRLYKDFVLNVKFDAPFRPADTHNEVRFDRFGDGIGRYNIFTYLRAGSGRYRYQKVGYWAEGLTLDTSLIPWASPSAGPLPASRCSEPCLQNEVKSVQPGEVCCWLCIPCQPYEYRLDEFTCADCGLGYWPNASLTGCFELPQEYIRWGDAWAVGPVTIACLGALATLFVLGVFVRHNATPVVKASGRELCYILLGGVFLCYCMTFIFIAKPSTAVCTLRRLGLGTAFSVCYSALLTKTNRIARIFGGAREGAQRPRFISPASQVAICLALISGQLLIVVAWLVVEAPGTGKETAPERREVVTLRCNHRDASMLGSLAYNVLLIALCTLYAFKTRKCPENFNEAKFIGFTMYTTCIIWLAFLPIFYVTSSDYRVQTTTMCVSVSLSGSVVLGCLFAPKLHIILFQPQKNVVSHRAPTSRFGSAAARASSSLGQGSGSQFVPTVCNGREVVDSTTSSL

CC(C)(CO)Cc1cc(C(C)(C)C)c(O)c(C(C)(C)C)c1 [CGP7930, 2,6-Di-tert.-butyl-4-4-(3-hydroxy-2,2-dimethyl-propyl)-phenol]
stimulation of truncated construct (IP production) [1]: strongly stimulates
agonist activity on heterodimeric GABAB receptor [2]: weak agonist activity

Fc1cccc(/C=N/N=C/c2cccc(F)c2)c1 [DFB]
effect on IP production of compound alone (agonist behaviour) ([3]; cells expressing mGlu5ΔS): stimulated IP production
EC50 ([3]; compound alone on mGlu5ΔS, n=3, read-out: EC50 for stimulation of IP production): 8 ± 3 µM
activation of the wild-type mGlu5 receptor by compound alone (wild-type mGlu5 receptor; glutamate kept as low as possible by coexpression of EAAC1 and addition of GPT with pyruvate (2 mM)): did not significantly activate
EC50 (wild-type mGlu5 receptor; in the presence of a low concentration of agonist, read-out: EC50 for dose-dependent increase of IP production): 1.81 ± 1.04 µM

COc1ccccc1Oc1ccc(N(Cc2cccnc2)S(=O)(=O)CC(F)(F)F)cc1 [LY487379]
agonist effect when applied alone (mGlu2 receptor): no agonist effect
potentiation of the effect of agonists (mGlu2 receptor): potentiate the effect of agonists

Cc1cccc(C#Cc2ccccc2)n1 [MPEP, 2-Methyl-6-(phenylethynyl)pyridine]
inhibition of the effect of DFB ([3]; mGlu5ΔS cells treated with 300 μM of DFB (FIG. 6B)): inhibited
inhibition of the effect of DFB (wild-type mGlu5 receptor; wild-type receptor, data not shown): inhibited

CCOC(=O)NC(=O)C(c1ccccc1)c1ccccc1 [Ro01-6128]
agonist effect when applied alone (mGlu1 receptor): no agonist effect
potentiation of the effect of agonists (mGlu1 receptor): potentiate the effect of agonists

glutamate
effect of glutamate on IP production (wild-type mGlu5 receptor; 100 μM glutamate (FIG. 3), wild-type mGlu5): stimulated IP production
